US6586443B1, “Method of treating multiple sclerosis” (priority 1986, dated 2003)

Key:
[1] = test system: genital herpes (herpes simplex virus (HSV) type No. 2); assay: case report: low dose naltrexone in chronic genital herpes; format: in vivo, human
Description: A person has had genital herpes for 13 years, experiencing a severe painful attack with several lesions for the 4-5 days preceding each menstrual period during most of that time. They were started on low dose naltrexone (1.75 mg per day at bedtime). […] Ten months later the dosage was increased to 2.75 mg/day also taken at bedtime. In the entire period of naltrexone treatment covering a number of months, they have had only two attacks each occurring 2-3 weeks after they ran out of naltrexone and interrupted the treatment temporarily.

[2] = case report: low dose naltrexone in multiple sclerosis; format: in vivo, human; conditions: person
Description: This gradually cleared over a two month period. […] This gradually cleared. An attack of transverse myelitis at the lower thoracic level occurred four months later, their third attack in eight months. As they were recovering from this attack, they started on naltrexone, 1.75 mg per day at bedtime. […] This attack involved weakness and numbness of the left arm.

[3] = test system: Mu and Delta opiate receptor sites; conditions: generally rated; cited from earlier work
[4] = recent press reports; cited from earlier work

Compound	number of genital herpes attacks in the entire period of naltrexone treatment ([1]; 1.75 then 2.75 mg/day at bedtime, each attack 2-3 weeks after treatment was temporarily interrupted)	effect on genital herpes attacks after start of treatment ([1]; person, 1.75 mg per day at bedtime, oral)	multiple sclerosis attacks after start of naltrexone ([2]; 1.75 mg per day at bedtime, three attacks in eight months before treatment)	multiple sclerosis attacks after resuming naltrexone ([2]; low dose naltrexone resumed after voluntary discontinuation)	Mu blocking action relative to Delta blocking action [3]	effectiveness in treating CFS compared with placebo [4]
O=C1CC[C@@]2(O)[C@H]3Cc4ccc(O)c5c4[C@@]2(CCN3CC2CC2)[C@H]1O5 [naltrexone]	two	attacks immediately stopped	only subsequent attack in the intervening period of many months occurred one year later, three weeks after they voluntarily discontinued naltrexone	no attacks since	about ten	
Nc1nc2c(ncn2COCCO)c(=O)[nH]1 [acyclovir]						no more effective than a placebo
